Entries after “also recorded” stand apart in the source; their conditions may differ. Read-outs that look alike come from different tables or passages of the source. Each block holds one compound with its values, some of them ahead of it. Non-standard residues stand in square brackets, D forms with d. Residues, ends and D or L forms follow the SMILES beside them. *: point of attachment. Dmt = Cc1cc(O)cc(C)c1C[C@H](N)C(=O)O; X1 = CCCCCCCCCCCCCCCCCCO*
What was measured:
[1] = flowable bolus implant, multiple time points
[2] = In vitro to in vivo correlation of fluocinolone acetonide release, rabbit eyes; conditions: formulations in multiphasic colloidal suspension
Protocol: Properties of Kd and binding capacity were calculated for each FA-complex particulate, in dispersal medium (FIG. 15). […] FIG. 16B illustrates other formulations, wherein varying the ratio of drug-complex particulates altered the kinetics of release, as the proportion of complexation agent (KET) with higher avidity (Kd) was increased across the formulations, for a given payload of FA.
The depicted curves reflect in vitro release profiles, while the individual colored points, circled, represent in vivo release data from rabbit eyes.

[3] = In vivo kinetics after intravitreal injection of bolus implant in rabbit eyes (LC/MS, retina); conditions: for residual drug in recovered bolus/implants: bolus formulation of native peptide
[4] = Sunitinib malate bio-erodible tube implant, drug levels in retina tissue of rabbits; format: in vivo, rabbit
Excerpt: In another example, formulations of the hydrophilic small molecule sunitinib malate in the multiphasic colloidal suspension were developed (FIGS. 20-22). […] Complexation of sunitinib to selected complexation agents was visually confirmed by admixture and pulldown of sunitinib-complex particulates, which was confirmed since by the yellow-orange color of particulates (sunitinib has orange coloration) (FIG. 21).
In another example, formulations of the hydrophilic small molecule sunitinib malate in the multiphasic colloidal suspension were developed. […] Complexation of sunitinib to selected complexation agents was visually confirmed by admixture and pulldown of sunitinib-complex particulates, which was confirmed since by the yellow-orange color of particulates (sunitinib has orange coloration). Formulations of sunitinib with two-phase release kinetics in a bio-erodible tube formulation of sunitinib multiphasic colloidal suspension were designed and manufactured. […] Alteration of the ratio of sunitinib-complex particulates reduced the amount of drug released during initial burst and lowered the steady state release.

carboxyesterase = assay: Cleavage of prodrug ester bond by carboxyesterase in vitro; format: in vitro ADME; conditions: 37° C., carboxyesterase 0.1 μg/mL
Protocol: One specific example of EY005-prodrug includes EY005-stearyl (depicted in FIG. 27A), wherein EY005 is linked via ester bond to stearyl alcohol, one member from the group of long-chain saturated fatty alcohols. On cleavage of the ester bond, the prodrug EY005-stearyl releases the EY005 MTT. […] Upon addition of EY005-stearyl prodrug to phosphate-buffered saline solution at 37° C. without esterase, the ester bond of the EY005-stearyl prodrug cleaves more slowly (˜36 hours) by hydrolysis (FIG. 28C).
EY005-stearyl was incubated at 37° C. in vitro with carboxyesterase (0.1 μg/mL), to simulate the ocular physiologic environment and the type of esterase that is readily abundant within the vitreous. […] Upon addition of EY005-stearyl prodrug to phosphate-buffered saline solution at 37° C. without esterase, the ester bond of the EY005-stearyl prodrug cleaves more slowly by hydrolysis (FIG. 28C).
In some examples of prodrugs, cleavage and release of the free API can be assessed in an in vitro release assay, wherein the prodrug is incubated in a solution containing carboxyesterase (or other natural or synthetic esterase), isolated vitreous recovered from animal (e.g., pig, rabbit, etc.), or isolated vitreous recovered from human donor, at […], […], or other temperatures. […]

Compound: CC1(C)O[C@@H]2C[C@H]3[C@@H]4C[C@H](F)C5=CC(=O)C=C[C@]5(C)[C@@]4(F)[C@@H](O)C[C@]3(C)[C@]2(C(=O)CO)O1 [FA, fluocinolone acetonide]
- correlation between drug release in vitro and in vivo (retina tissue levels) [2]: strong correlation
- correlation between drug release in vitro and in vivo (retina tissue levels) ([2]; listed as fluocinolone acetonide): good in vitro to in vivo correlation

Compound: Cc1cc(O)cc(C)c1C[C@H](NC(=O)[C@H](N)CCCNC(=N)N)C(=O)N[C@@H](CCCCN)C(=O)N[C@@H](Cc1ccccc1)C(=O)O [EY005, H-d-Arg-DMT-Lys-Phe] (H-[dR][Dmt]KF-OH; C-terminus assumed)
- time beyond which no detectable tissue levels ([3]; bolus formulation of native API administered into the vitreous): ≤ 21 days
- residual drug in recovered bolus/implants ([3]; rabbits, listed as EY005 native peptide): Recovered implants contained no EY005 native peptide
- residual drug in recovered bolus/implants ([3]; rabbits, listed as native API): no residual drug in the recovered bolus
- tissue concentrations ([3]; by week 3.5, identical bolus formulation, rabbits): nearly undetectable

Compound: CCCCCCCCCCCCCCCCCCOC(=O)[C@H](Cc1ccccc1)NC(=O)[C@H](CCCCN)NC(=O)[C@H](Cc1c(C)cc(O)cc1C)NC(=O)[C@H](N)CCCNC(=N)N [EY005-stearyl, H-d-Arg-DMT-Lys-Phe(O)-stearyl] (H-[dR][Dmt]KF-X1)
- cleavage of the prodrug ester bond, releasing EY005 (HPLC) (carboxyesterase): rapid cleavage of the prodrug ester bond

More lines, main results first:

- drug levels in retina tissue [1]: detectable drug levels in retina tissue
Compound: CNC(=O)c1ccccc1Sc1ccc2c(/C=C/c3ccccn3)n[nH]c2c1 [axitinib]

- drug levels in retina tissue ([4]; low and high dose implants, multiple time points): detectable drug levels in retina tissue
Compound: CCN(CC)CCNC(=O)c1c(C)[nH]c(/C=C2\C(=O)Nc3ccc(F)cc32)c1C [sunitinib malate]
- release kinetics (pharmacokinetics) and tissue levels of tube formulation ([4]; bio-erodible tube formulation): produced desired tissue levels and durability of release; also recorded: two-phase release with high initial burst, followed by steady-state release

Reference: patent publication US20240269320A1, “EXTENDED RELEASE DRUG DELIVERY SYSTEM FOR OCULAR DRUGS AND METHODS OF USE” (Eyedea Bio, LLC, priority 2021, published 2024)
